System: participants with Raynaud's Phenomenon secondary mostly to systemic sclerosis (SSc-RP)
Experiment: Frequency of weekly symptomatic RP attacks (patient diary), Phase 2a study Part A
Type: in vivo, human
Description: A randomized, placebo-controlled phase 2a study was performed and is in progress to assess the safety and efficacy of cilnidipine (10 mg and 20 mg) alone and in combination with 5 mg tadalafil, in participants with diagnosis of scleroderma and/or secondary Raynaud's disease.
The relevant metrics measured by this tool daily are: • Study medication • SSc-RP symptoms (Reporting an attack including duration of attack) • Severity of the attack considering all symptoms of the attack e.g., tingling, numbness, pain, color changes (VAS 0-10 cm scale) • Participant's location at the time of the attack (inside home/outside home) • Selecting symptoms experienced during the attack (tingling, numbness, pain, color changes, other) • Pain rating during the attack (11-point Likert scale) • The RCS based on how much difficulty participants had with Raynaud's today, how many attacks the participant had, and how long they lasted. Participants will also be asked to consider how much pain, numbness, or other symptoms the Raynaud's caused in fingers (including painful sores), and how much the Raynaud's alone affected the use of hands today (VAS 0-10 cm scale).
Percent change from baseline evaluation for frequency of weekly RP attacks were or will be used as the primary efficacy variable. The sponsor-developed participant-informed diary will be used to record data. Frequency of weekly RP attacks is defined as the total number of RP attacks divided by the number of days with available diary data within the last 7 days of each dosing period then multiplied by 7. Total number of RP attacks during the last 7 days of screening period divided by the number of days with available data then multiplied by 7 will be used as baseline for the analysis of all periods. The variable will be calculated as follows:
Percentage change={(weekly RP attacks for the last 7 days of each dosing period−Baseline weekly RP attacks)/Baseline weekly RP attacks}*100%.
Absolute change=weekly RP attacks for the last 7 days of each dosing period−Baseline weekly RP attacks
Percent change from baseline evaluation for frequency of weekly RP attacks was and will be the primary efficacy endpoint. Frequency of weekly RP attacks is defined as the total number of RP attacks divided by the number of days with available diary data within the last 7 days of each dosing period then multiplied by 7. Total number of RP attacks during the last 7 days of screening period divided by the number of days with available data then multiplied by 7 will be used as baseline for the analysis of all periods.
The following data was actually obtained in accordance with the protocol and plan delineated in Examples 1 and 2. The accompanying data involved 11 patients out of the planned 76 patient study. The study was done in patients with scleroderma (systemic sclerosis) who had relatively frequent Raynaud symptoms as they needed to average at least one attack per day during a screening period of up to two weeks. In this first phase of this double-blind placebo-controlled, prospective randomized study, patients were treated in parallel and after meeting study criteria were randomized to receive either placebo, cilnidipine 10 mg daily, cilnidipine 20 mg daily, tadalafil 5 mg daily, cilnidipine 10 mg plus 5 mg of tadalafil, or cilnidipine 20 mg plus 5 mg of tadalafil.

[1] = Tadalafil 5 mg (N = 2), ITT Part A
[2] = Tadalafil 5 mg, n 1, Excluding Outliers, ITT Part A
[3] = Tadalafil 5 mg, n 2, by Baseline RCS, 2nd block (RCS >5.0), ITT Part A
[4] = excluding outliers, by baseline RCS, second subgroup, cilnidipine 10 mg, tadalafil 5 mg daily

SMILES: CN1CC(=O)N2[C@H](c3ccc4c(c3)OCO4)c3[nH]c4ccccc4c3C[C@@H]2C1=O [Tadalafil, tadalafil]
- Weekly Symptomatic RP Attacks Change from Baseline, Mean [1]: 4.50
- Weekly Symptomatic RP Attacks Change from Baseline, Median [1]: 4.50
- Weekly Symptomatic RP Attacks Percent Change from Baseline, Mean [1]: 62.50%
- Weekly Symptomatic RP Attacks Percent Change from Baseline, Median [1]: 62.50%
- Weekly Symptomatic RP Attacks, Mean [1]: 12.50
- Weekly Symptomatic RP Attacks, Median [1]: 12.50
- Weekly Symptomatic RP Attacks Change from Baseline, Mean (SD) [2]: 6.00
- Weekly Symptomatic RP Attacks Change from Baseline, Median [2]: 6.00
- Weekly Symptomatic RP Attacks Percent Change from Baseline, Mean (SD) [2]: 50.00%
- Weekly Symptomatic RP Attacks Percent Change from Baseline, Median [2]: 50.00%
- Weekly Symptomatic RP Attacks, Mean (SD) [2]: 18.00
- Weekly Symptomatic RP Attacks, Median [2]: 18.00
- Weekly Symptomatic RP Attacks Change from Baseline, Mean (SD) [3]: 4.50 (2.121)
- Weekly Symptomatic RP Attacks Change from Baseline, Median [3]: 4.50
- Weekly Symptomatic RP Attacks Percent Change from Baseline, Mean (SD) [3]: 62.50 (17.678) %
- Weekly Symptomatic RP Attacks Percent Change from Baseline, Median [3]: 62.50%
- Weekly Symptomatic RP Attacks, Mean (SD) [3]: 12.50 (7.778)
- Weekly Symptomatic RP Attacks, Median [3]: 12.50
- Weekly Symptomatic RP Attacks Change from Baseline, Max [4]: 6.0, 6.0
- Weekly Symptomatic RP Attacks Change from Baseline, Mean (SD) [4]: 6.00
- Weekly Symptomatic RP Attacks Change from Baseline, Median [4]: 6.00
- Weekly Symptomatic RP Attacks Change from Baseline, Min [4]: 6.0, 6.0
- Weekly Symptomatic RP Attacks Change from Baseline, Q1 [4]: 6.00, 6.00
- Weekly Symptomatic RP Attacks Change from Baseline, Q3 [4]: 6.00, 6.00
- Weekly Symptomatic RP Attacks Percent Change from Baseline, Max [4]: 50.0, 50.0%
- Weekly Symptomatic RP Attacks Percent Change from Baseline, Mean (SD) [4]: 50.00%
- Weekly Symptomatic RP Attacks Percent Change from Baseline, Median [4]: 50.00%
- Weekly Symptomatic RP Attacks Percent Change from Baseline, Min [4]: 50.0, 50.0%
- Weekly Symptomatic RP Attacks Percent Change from Baseline, Q1 [4]: 50.00, 50.00%
- Weekly Symptomatic RP Attacks Percent Change from Baseline, Q3 [4]: 50.00, 50.00%
- Weekly Symptomatic RP Attacks, Max [4]: 18.0, 18.0
- Weekly Symptomatic RP Attacks, Mean (SD) [4]: 18.00
- Weekly Symptomatic RP Attacks, Median [4]: 18.00
- Weekly Symptomatic RP Attacks, Min [4]: 18.0, 18.0
- Weekly Symptomatic RP Attacks, Q1 [4]: 18.00, 18.00
- Weekly Symptomatic RP Attacks, Q3 [4]: 18.00, 18.00
